# Source: patent US9896435B2, “N-pyrrolidinyl,N′-pyrazolyl-urea, thiourea, guanidine and cyanoguanidine compounds as TrkA kinase inhibitors” (Array BioPharma Inc., priority 2012, dated 2018)
# Key:
# Experiment in all cases: KinaseProfiler off-target kinase profiling
# Assay type in all cases: biochemical
# Settings in all cases: 10 μM, ATP near Km
# Bmx = Bmx (Homo sapiens (Human), UniProt P51813)
# Experimental: (§1) Two representative compounds (Example 2, 14) of the invention were tested for off-target kinase activity at a concentration of 10 μM by Millipore, Inc. in their KinaseProfiler™ service against all the kinases available in their full kinase panel. These compounds were run in duplicate at a concentration of ATP near the Km for each individual kinase according to Millipore's specifications. The results are shown in Table B. Data are reported as percent of control (POC) and are the average of the two replicates.
# CDK1/cyclinB = CDK1/cyclinB (Homo sapiens (Human), UniProt P06493)
# CDK1/cyclinB, sequence (P06493 whole entry): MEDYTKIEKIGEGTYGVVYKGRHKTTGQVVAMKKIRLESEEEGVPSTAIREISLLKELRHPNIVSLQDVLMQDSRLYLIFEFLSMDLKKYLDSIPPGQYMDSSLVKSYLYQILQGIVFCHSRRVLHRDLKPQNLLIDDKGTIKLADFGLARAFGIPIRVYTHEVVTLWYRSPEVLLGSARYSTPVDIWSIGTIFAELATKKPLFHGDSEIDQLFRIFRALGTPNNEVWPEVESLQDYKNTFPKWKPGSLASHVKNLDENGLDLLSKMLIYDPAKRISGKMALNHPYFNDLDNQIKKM
# CDK1/cyclinB, sequence (P14635 whole entry partner): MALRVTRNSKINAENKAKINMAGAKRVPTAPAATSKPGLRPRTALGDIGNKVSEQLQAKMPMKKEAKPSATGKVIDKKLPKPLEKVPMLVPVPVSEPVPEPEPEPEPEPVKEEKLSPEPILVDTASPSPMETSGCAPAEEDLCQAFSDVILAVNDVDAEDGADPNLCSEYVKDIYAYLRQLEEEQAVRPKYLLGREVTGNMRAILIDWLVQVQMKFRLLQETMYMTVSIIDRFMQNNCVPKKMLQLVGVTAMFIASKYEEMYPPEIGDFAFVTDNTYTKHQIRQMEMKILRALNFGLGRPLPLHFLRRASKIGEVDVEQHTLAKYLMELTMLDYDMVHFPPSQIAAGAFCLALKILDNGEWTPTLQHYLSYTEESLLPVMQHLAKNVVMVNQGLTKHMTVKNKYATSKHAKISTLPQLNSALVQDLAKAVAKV
# Experimental: as §1
# PAK5 = PAK5 (Homo sapiens (Human), UniProt Q9P286)
# PAK5, sequence (Q9P286 whole entry): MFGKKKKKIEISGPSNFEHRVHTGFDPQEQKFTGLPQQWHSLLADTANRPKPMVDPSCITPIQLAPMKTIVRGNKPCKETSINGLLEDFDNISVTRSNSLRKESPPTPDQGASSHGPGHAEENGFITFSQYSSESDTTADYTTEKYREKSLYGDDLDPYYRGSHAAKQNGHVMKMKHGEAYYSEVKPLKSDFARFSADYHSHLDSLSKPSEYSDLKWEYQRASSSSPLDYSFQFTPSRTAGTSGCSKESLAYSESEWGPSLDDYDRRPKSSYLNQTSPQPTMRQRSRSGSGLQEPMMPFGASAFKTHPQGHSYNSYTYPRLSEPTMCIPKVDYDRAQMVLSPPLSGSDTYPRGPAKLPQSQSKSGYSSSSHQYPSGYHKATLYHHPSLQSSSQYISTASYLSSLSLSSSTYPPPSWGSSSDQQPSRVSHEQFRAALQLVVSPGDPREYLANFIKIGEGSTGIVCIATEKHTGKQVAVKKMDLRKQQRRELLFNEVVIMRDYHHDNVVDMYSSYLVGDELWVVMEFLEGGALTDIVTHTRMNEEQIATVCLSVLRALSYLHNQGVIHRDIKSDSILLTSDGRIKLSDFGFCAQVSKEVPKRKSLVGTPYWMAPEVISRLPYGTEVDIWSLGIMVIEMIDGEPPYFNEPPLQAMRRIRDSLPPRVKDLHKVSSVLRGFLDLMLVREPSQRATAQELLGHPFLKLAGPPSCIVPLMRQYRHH
# Experimental: as §1
# NEK6 = NEK6 (Homo sapiens (Human), UniProt Q9HC98)
# Experimental: as §1
# WNK3 = WNK3 (Homo sapiens (Human), UniProt Q9BYP7)
# Experimental: as §1
# LKB1 = LKB1 (Homo sapiens (Human), UniProt Q15831)
# Experimental: as §1
# BTK = BTK (Homo sapiens (Human), UniProt Q06187)
# Experimental: as §1
# EphA5 = EphA5 (Homo sapiens (Human), UniProt P54756)
# Experimental: as §1
# Txk = Txk (Homo sapiens (Human), UniProt P42681)
# Txk, sequence (P42681 whole entry): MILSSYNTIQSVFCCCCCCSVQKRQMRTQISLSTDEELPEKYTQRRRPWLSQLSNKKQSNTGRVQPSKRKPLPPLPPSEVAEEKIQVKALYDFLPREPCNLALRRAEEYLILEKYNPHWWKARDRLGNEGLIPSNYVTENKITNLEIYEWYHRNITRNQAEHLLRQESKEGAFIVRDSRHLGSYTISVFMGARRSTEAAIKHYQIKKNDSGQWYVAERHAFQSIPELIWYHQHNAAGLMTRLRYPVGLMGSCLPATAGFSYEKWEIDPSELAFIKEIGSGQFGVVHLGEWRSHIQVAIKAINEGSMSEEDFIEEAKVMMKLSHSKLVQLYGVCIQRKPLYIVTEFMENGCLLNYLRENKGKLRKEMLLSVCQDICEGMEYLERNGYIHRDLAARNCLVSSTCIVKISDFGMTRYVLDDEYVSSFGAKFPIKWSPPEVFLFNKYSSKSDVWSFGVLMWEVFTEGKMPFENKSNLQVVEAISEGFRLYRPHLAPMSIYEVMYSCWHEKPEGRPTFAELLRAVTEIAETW
# Experimental: as §1
# TAO1 = TAO1 (Homo sapiens (Human), UniProt Q7L7X3)
# Experimental: as §1
# MKK7 = MKK7 (Homo sapiens (Human), UniProt O14733)
# Experimental: as §1
# SRPK2 = SRPK2 (Homo sapiens (Human), UniProt P78362)
# Experimental: as §1
# TEC Activated = TEC Activated (Homo sapiens (Human), UniProt P42680)
# Experimental: as §1
# SRC = SRC (Homo sapiens (Human), UniProt P12931)
# Experimental: as §1
# TSSK1 = TSSK1 (Homo sapiens (Human), UniProt Q9BXA7)
# Experimental: as §1
# MKK4_m = MKK4_m (Mus musculus (Mouse), UniProt P47809)
# Experimental: as §1
# CAMK4 = CAMK4 (Homo sapiens (Human), UniProt Q16566)
# Experimental: as §1
# MSK1 = MSK1 (Homo sapiens (Human), UniProt O75582)
# MSK1, sequence (O75582 whole entry): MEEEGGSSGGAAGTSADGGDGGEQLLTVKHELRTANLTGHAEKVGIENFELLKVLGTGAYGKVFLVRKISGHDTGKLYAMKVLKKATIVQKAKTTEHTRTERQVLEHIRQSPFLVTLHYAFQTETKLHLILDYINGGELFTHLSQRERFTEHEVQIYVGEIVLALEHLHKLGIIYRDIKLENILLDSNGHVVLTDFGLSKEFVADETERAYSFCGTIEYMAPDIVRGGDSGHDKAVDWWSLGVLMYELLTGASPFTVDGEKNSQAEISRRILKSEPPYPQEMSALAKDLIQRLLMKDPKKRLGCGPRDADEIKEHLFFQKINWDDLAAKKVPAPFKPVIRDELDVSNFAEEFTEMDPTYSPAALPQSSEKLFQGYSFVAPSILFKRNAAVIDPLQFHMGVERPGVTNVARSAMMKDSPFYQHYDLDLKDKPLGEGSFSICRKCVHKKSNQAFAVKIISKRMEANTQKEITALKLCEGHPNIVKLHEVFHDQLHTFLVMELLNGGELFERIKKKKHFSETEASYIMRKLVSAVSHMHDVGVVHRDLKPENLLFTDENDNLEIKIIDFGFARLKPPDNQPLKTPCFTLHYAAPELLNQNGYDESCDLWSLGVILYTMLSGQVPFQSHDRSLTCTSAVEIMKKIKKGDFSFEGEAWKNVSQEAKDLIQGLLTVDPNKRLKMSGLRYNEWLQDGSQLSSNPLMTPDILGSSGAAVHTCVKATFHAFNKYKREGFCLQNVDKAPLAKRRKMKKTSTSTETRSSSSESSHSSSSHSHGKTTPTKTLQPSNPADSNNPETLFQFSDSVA
# Experimental: as §1
# CDK5/p25 = CDK5/p25 (Homo sapiens (Human), UniProt Q00535)
# Experimental: as §1
# PKCbetaII = PKCbetaII (Homo sapiens (Human), UniProt P05771)
# Experimental: as §1
# AKT3 = AKT3 (Homo sapiens (Human), UniProt Q9Y243)
# Experimental: as §1
# FGFR1 = FGFR1 (Homo sapiens (Human), UniProt P11362)
# FGFR1, sequence (P11362 22-822): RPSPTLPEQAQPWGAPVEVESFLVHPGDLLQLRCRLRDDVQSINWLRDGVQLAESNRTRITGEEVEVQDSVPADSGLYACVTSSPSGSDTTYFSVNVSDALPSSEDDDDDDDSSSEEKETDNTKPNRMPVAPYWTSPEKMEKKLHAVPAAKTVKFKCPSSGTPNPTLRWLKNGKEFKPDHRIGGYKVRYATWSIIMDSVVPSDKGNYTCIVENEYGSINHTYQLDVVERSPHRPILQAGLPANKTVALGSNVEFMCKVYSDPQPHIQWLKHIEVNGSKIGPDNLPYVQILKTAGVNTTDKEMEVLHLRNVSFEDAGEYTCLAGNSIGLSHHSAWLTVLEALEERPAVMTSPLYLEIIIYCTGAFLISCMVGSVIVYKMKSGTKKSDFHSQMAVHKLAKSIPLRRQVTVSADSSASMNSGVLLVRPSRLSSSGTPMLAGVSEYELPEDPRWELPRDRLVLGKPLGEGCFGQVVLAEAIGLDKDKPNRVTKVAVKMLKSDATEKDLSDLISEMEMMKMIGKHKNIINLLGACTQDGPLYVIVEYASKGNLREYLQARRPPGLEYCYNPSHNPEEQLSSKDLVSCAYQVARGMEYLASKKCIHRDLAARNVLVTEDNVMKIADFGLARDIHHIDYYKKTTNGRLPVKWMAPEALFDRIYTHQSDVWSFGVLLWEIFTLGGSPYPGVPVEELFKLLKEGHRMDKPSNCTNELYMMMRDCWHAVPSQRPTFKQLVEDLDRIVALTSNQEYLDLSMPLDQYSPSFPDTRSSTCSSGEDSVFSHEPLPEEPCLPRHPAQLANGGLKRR
# Experimental: as §1
# SIK = SIK (Homo sapiens (Human), UniProt P57059)
# SIK, sequence (P57059 whole entry): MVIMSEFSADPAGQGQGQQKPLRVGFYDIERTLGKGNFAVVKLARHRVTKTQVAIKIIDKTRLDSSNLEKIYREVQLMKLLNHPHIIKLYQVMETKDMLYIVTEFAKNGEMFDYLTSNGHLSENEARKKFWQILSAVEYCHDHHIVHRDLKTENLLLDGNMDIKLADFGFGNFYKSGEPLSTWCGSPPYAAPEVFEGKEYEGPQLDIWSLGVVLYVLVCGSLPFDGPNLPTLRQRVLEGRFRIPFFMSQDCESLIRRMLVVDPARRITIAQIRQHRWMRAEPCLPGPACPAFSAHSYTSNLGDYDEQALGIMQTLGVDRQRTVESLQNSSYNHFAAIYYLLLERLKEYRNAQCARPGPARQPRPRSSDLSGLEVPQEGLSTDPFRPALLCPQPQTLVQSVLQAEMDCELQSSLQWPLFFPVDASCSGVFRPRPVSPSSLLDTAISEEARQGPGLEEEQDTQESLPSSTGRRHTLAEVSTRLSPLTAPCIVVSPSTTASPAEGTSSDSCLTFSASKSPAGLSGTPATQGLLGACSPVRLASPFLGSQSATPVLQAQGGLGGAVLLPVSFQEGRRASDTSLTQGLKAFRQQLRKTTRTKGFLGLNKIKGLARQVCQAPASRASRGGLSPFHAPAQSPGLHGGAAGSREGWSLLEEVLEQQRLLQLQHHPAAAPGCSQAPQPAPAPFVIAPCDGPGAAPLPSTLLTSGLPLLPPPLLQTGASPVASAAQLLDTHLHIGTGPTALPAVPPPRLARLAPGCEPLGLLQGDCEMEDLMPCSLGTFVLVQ
# Experimental: as §1
# RIPK2 = RIPK2 (Homo sapiens (Human), UniProt O43353)
# Experimental: as §1
# PKCgamma = PKCgamma (Homo sapiens (Human), UniProt P05129)
# Experimental: as §1
# MAP4K2 = MAP4K2 (Homo sapiens (Human), UniProt Q12851)
# Experimental: as §1
# Fer = Fer (Homo sapiens (Human), UniProt P16591)
# Experimental: as §1
# MYLK = MYLK (Homo sapiens (Human), UniProt Q15746)
# Experimental: as §1
# CK1gamma2 = CK1gamma2 (Homo sapiens (Human), UniProt P78368)
# CK1gamma2, sequence (P78368 whole entry): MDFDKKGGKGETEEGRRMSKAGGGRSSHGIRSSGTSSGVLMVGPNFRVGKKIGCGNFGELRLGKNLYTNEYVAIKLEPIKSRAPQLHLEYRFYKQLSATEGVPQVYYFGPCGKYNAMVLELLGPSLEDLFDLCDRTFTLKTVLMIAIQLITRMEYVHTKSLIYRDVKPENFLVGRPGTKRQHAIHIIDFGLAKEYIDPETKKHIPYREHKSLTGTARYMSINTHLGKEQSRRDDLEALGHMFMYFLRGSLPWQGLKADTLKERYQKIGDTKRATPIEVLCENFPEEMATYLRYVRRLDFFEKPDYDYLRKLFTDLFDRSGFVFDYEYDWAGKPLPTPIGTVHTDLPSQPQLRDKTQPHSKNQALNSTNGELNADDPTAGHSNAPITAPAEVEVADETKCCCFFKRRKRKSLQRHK
# Experimental: as §1
# BrSK1 = BrSK1 (Homo sapiens (Human), UniProt Q8TDC3)
# Experimental: as §1
# MAPKAP-K2 = MAPKAP-K2 (Homo sapiens (Human), UniProt P49137)
# Experimental: as §1
# IKKalpha = IKKalpha (Homo sapiens (Human), UniProt O15111)
# Experimental: as §1
# TBK1 = TBK1 (Homo sapiens (Human), UniProt Q9UHD2)
# Experimental: as §1
# SGK3 = SGK3 (Homo sapiens (Human), UniProt Q96BR1)
# Experimental: as §1
# HIPK1 = HIPK1 (Homo sapiens (Human), UniProt Q86Z02)
# Experimental: as §1
# Rsk1 = Rsk1 (Homo sapiens (Human), UniProt Q15418)
# Experimental: as §1
# Flt3 = Flt3 (Homo sapiens (Human), UniProt P36888)
# Experimental: as §1
# PKD2 = PKD2 (Homo sapiens (Human), UniProt Q9BZL6)
# Experimental: as §1
# PrKX = PrKX (Homo sapiens (Human), UniProt P51817)
# Experimental: as §1
# PKCtheta = PKCtheta (Homo sapiens (Human), UniProt Q04759)
# Experimental: as §1
Compound,Avg POC (Bmx),Avg POC (CDK1/cyclinB),Avg POC (PAK5),Avg POC (NEK6),Avg POC (WNK3),Avg POC (LKB1),Avg POC (BTK),Avg POC (EphA5),Avg POC (Txk),Avg POC (TAO1),Avg POC (MKK7),Avg POC (SRPK2),Avg POC (TEC Activated),Avg POC (SRC),Avg POC (TSSK1),Avg POC (MKK4_m),Avg POC (CAMK4),Avg POC (MSK1),Avg POC (CDK5/p25),Avg POC (PKCbetaII),also measured
"COCCN1C[C@@H](NC(=O)Nc2c(C)c(-c3ccnc(C)c3)nn2-c2ccccc2)[C@H](c2ccc(F)c(F)c2)C1 [Example 2, 1-((3S,4R)-4-(3,4-difluorophenyl)-1-(2-methoxyethyl)pyrrolidin-3-yl)-3-(4-methyl-3-(2-methylpyridin-4-yl)-1-phenyl-1H-pyrazol-5-yl)urea]",115.5 POC,104 POC,103 POC,105.5 POC,99 POC,89.5 POC,109 POC,102.5 POC,99.5 POC,102.5 POC,97.5 POC,96.5 POC,107 POC,105 POC,105 POC,115 POC,97.5 POC,102.5 POC,104 POC,101.5 POC,Avg POC (AKT3): 110 POC; Avg POC (FGFR1): 106.5 POC; Avg POC (SIK): 106.5 POC; Avg POC (RIPK2): 105.5 POC; Avg POC (PKCgamma): 100.5 POC; Avg POC (MAP4K2): 105.5 POC; Avg POC (Fer): 105 POC; Avg POC (MYLK): 86.5 POC; Avg POC (CK1gamma2): 73.5 POC; Avg POC (BrSK1): 104 POC; Avg POC (MAPKAP-K2): 111 POC; Avg POC (IKKalpha): 121 POC; Avg POC (TBK1): 116.5 POC; Avg POC (SGK3): 106 POC; Avg POC (HIPK1): 96.5 POC; Avg POC (Rsk1): 111 POC; Avg POC (Flt3): 119.5 POC; Avg POC (PKD2): 101.5 POC; Avg POC (PrKX): 110.5 POC; Avg POC (PKCtheta): 98.5 POC
"COCCN1C[C@@H](NC(=O)Nc2c(C)c(-c3cnc(C)nc3)nn2-c2ccccc2)[C@H](c2cc(F)cc(F)c2)C1 [Example 14, 1-((3S,4R)-4-(3,5-difluorophenyl)-1-(2-methoxyethyl)pyrrolidin-3-yl)-3-(4-methyl-3-(2-methylpyrimidin-5-yl)-1-phenyl-1H-pyrazol-5-yl)urea]",105.5 POC,97 POC,107 POC,102 POC,96 POC,103.5 POC,97.5 POC,101.5 POC,98.5 POC,96.5 POC,111 POC,102.5 POC,83.5 POC,103.5 POC,104.5 POC,116.5 POC,83.5 POC,106 POC,99 POC,92 POC,Avg POC (AKT3): 104 POC; Avg POC (FGFR1): 101.5 POC; Avg POC (SIK): 96 POC; Avg POC (RIPK2): 93.5 POC; Avg POC (PKCgamma): 89.5 POC; Avg POC (MAP4K2): 99.5 POC; Avg POC (Fer): 100.5 POC; Avg POC (MYLK): 101.5 POC; Avg POC (CK1gamma2): 53 POC; Avg POC (BrSK1): 94 POC; Avg POC (MAPKAP-K2): 101 POC; Avg POC (IKKalpha): 118.5 POC; Avg POC (TBK1): 103 POC; Avg POC (SGK3): 107 POC; Avg POC (HIPK1): 97.5 POC; Avg POC (Rsk1): 111.5 POC; Avg POC (Flt3): 90 POC; Avg POC (PKD2): 108 POC; Avg POC (PrKX): 94 POC; Avg POC (PKCtheta): 98 POC
